Results published in patent US20190375787A1, “PEPTIDOMIMETICS AND THEIR USE IN THERAPY” (INSTYTUT […]. Z O.O., priority 2016, published 2019).
Square brackets hold non-standard residues; d marks the D form. Peptide text beside a SMILES is read from it. * marks the point of attachment. X1 = C(=Cc1ccccc1)CN1CCN(*)CC1

Legend:
Assay type in all cases: cell-based
[1] = tested on: SW620 (intestinal cancer); test: Cell growth, colorimetric MTT or XTT, SW620
Description: (§1) Influence of the compounds on the cell growth was evaluated by colorimetric method, using MTT or XTT reagent, values of IC50 were determined. The tests were based on reduction of the salt by mitochondrial dehydrogenase from metabolically active cells. The colored product of the reaction was determined colorimetrically, and in result the number of living cells was assigned.

[2] = tested on: SW620 (intestinal cancer) cells; test: Inhibition of cell migration (transwell insert), SW620; details: SW620, IC50 concentration
Description: (§2) Inhibition of cell migration was evaluated using 24-well plates with PET (polyethylene terephthalate) membrane transwell insert. The experiment was performed using IC50 concentrations of the tested compounds, and migration of the cells, that means, the number of the cells passing through the membrane to the bottom side of the membrane, was observed. The cells which passed the membrane, were stained with crystal violet and counted.

[3] = tested on: Colo205 (intestinal cancer); test: Cell growth, colorimetric MTT or XTT, Colo205
Description: as §1

[4] = tested on: SW480 (intestinal cancer) cells; test: Inhibition of cell migration (transwell insert), SW480; details: SW480, IC50 concentration
Description: as §2

HT29 (intestinal cancer) = test: Cell growth, colorimetric MTT or XTT, HT29
Description: as §1

[5] = tested on: human pancreatic cancer cell line CFPAC-1; test: MTS cell viability test on CFPAC-1 cells; details: 24 h incubation; for activity (cell viability) compared with gem and 5FU: CFPAC-1, concentrations 0.01-0.1 mM; for activity relative to the reference drugs (gem, 5FU): CFPAC-1, higher concentrations (above 0.1 mM)
Description: Phenylalanyl-trans-1-cinnamylpiperazine was acylated with t-Boc-Tyr-D-Ala using TBTU/DIPEA methodology. The reaction product was precipitated with 10% NaHCO3 and separated from the reaction mixture by filtration. The solid was washed three times with water, until neutral pH of the filtrate was reached. The t-butyloxycarbonyl group was removed using TFA:DCM (1:1). The crude product was purified by preparative HPLC in a gradient of water/methanol with addition of 0.1% trifluoroacetic acid. The counterion was changed to Cl^− using the Dowex ion-exchange resin. The purified product, tyrosyl-D-alanyl-phenylalanyl-cinnamylpiperazine hydrochloride (further called TyrDAlaPheCyn) was tested on human pancreatic cancer cell line CFPAC-1, in comparison to commercial drugs, gemcitabine (gem) and 5-fluorouracil (5FU). The cells were grown on IMDM medium supplemented with 10% (v/v h.i. FBS, 2 mM L-glutamine and 1% (v/v) penicillin-streptomycin, in 37° C., in humidified atmosphere, with 5% CO2. The cells were seeded in 96 wells plate (3×10^3 cells per well) and incubated for 24 h (37° C., 5% CO2) in the culture medium. Next, TyrDAlaPheCyn, gem and 5FU in 5% DMSO solutions were added, to give in wells concentrations 0 (5% DMSO); 0.01; 0.05; 0.1; 0.5; and 1 mM. The plates were incubated for 24 h (37° C., 5% CO2). Cell viability was determined using colorimetric test MTS (3-(4,5-dimethylthiazol-2-yl)-5-(3-carboxymethoxyphenyl)-2-(4-sulfophenyl)-2H-tetrazolium). To each well, 20 μl of the reagent was added, and the plates were incubated in the same conditions for 1 h. The absorbance intensity at 490 nm was read. […] However, at higher concentrations, activity of the tested compound was even 4 times higher than for the reference drugs.
Tryptophyl-trans-1-cinnamylpiperazine was acylated with t-Boc-Tyr-D-Ala using TBTU/DIPEA methodology. The reaction product was precipitated with 10% NaHCO3 and separated from the reaction mixture by filtration. The solid was washed three times with water, until neutral pH of the filtrate was reached. The t-butyloxycarbonyl group was removed using TFA:DCM (1:1). […] The cells were grown on DMDM medium supplemented with 10% (v/v h.i. FBS, 2 mM L-glutamine and 1% (v/v) penicillin-streptomycin, in 37° C., in humidified atmosphere, with 5% CO2. The cells were seeded in 96 wells plate (3×10^3 cells per well) and incubated for 24 h (37° C., 5% CO2) in the culture medium. Next, TyrDAlaTrpCyn, gem and 5FU in 5% DMSO solutions were added, to assure in wells concentrations 0 (5% DMSO); 0.01; 0.05; 0.1; 0.5; and 1 mM. The plates were incubated for 24 h (37° C., 5% CO2). Cell viability was determined using colorimetric test MTS (3-(4,5-dimethylthiazol-2-yl)-5-(3-carboxymethoxyphenyl)-2-(4-sulfophenyl)-2H-tetrazolium). […] The absorbance intensity at 490 nm was read. […]

[6] = tested on: Colo205 (intestinal cancer) cells; test: Inhibition of cell migration (transwell insert), Colo205; details: Colo205, IC50 concentration, concentrations below 400 μM
Description: as §2

[7] = tested on: HT29 (intestinal cancer) cells; test: Inhibition of cell migration (transwell insert), HT29; details: HT29, IC50 concentration, concentrations below 400 μM
Description: as §2

Compound	IC50 [1] [µM]	activity (cell viability) compared with gem and 5FU [5]	activity relative to the reference drugs (gem, 5FU) [5] [times]	inhibition of cell migration [6] [%]	inhibition of cell migration ([4]; concentrations below 400 μM) [%]	inhibition of cell migration [7] [%]	other results
C[C@H](O)[C@@H](NC(=O)[C@@H](N)Cc1ccc(O)cc1)C(=O)NCC(=O)N[C@@H](Cc1c[nH]c2ccccc12)C(=O)N1CCN(CC=Cc2ccccc2)CC1.Cl [TyrDThrGlyTrpCyn, tyrosyl-D-threonyl-glicyl-tryptophyl-1-cinnamylpiperazine hydrochloride] (H-Y[dT]GW-X1)	< 600						inhibition of cell migration ([2]; concentrations below 600 μM): ≤ 30%; IC50 [3]: < 650 µM; inhibition of cell migration ([4]; concentrations below 600 μM): ≤ 40%; IC50 (HT29 (intestinal cancer)): < 600 µM
C[C@@H](NC(=O)[C@@H](N)Cc1ccc(O)cc1)C(=O)N[C@@H](Cc1c[nH]c2ccccc12)C(=O)N1CCN(CC=Cc2ccccc2)CC1.Cl [TyrDAlaTrpCyn, tyrosyl-D-alanyl-tryptophyl-cinnamylpiperazine hydrochloride]		similar	4				
C[C@@H](NC(=O)[C@@H](N)Cc1ccc(O)cc1)C(=O)NCC(=O)N[C@@H](Cc1ccccc1)C(=O)N1CCN(CC=Cc2ccccc2)CC1.Cl [TyrDAlaGlyPheCyn, tyrosyl-D-alanyl-glicyl-phenylalanyl-1-cinnamylpiperazine hydrochloride]	< 450			≤ 60	≤ 60	≤ 70	inhibition of cell migration ([2]; concentrations below 450 μM): ≤ 40%
C[C@H](O)[C@@H](NC(=O)[C@@H](N)Cc1ccc(O)cc1)C(=O)NCC(=O)N[C@@H](Cc1ccccc1)C(=O)N1CCN(CC=Cc2ccccc2)CC1.Cl [TyrDThrGlyPheCyn, tyrosyl-D-threonyl-glicyl-phenylalanyl-1-cinnamylpiperazine hydrochloride] (H-Y[dT]GF-X1)	< 650						inhibition of cell migration ([4]; concentrations below 500 μM): ≤ 45%
C[C@@H](NC(=O)[C@@H](N)Cc1ccc(O)cc1)C(=O)NCC(=O)N[C@@H](Cc1c[nH]c2ccccc12)C(=O)N1CCN(CC=Cc2ccccc2)CC1.Cl [TyrDAlaGlyTrpCyn, tyrosyl-D-alanyl-glicyl-tryptophyl-1-cinnamylpiperazine hydrochloride] (H-Y[dA]GW-X1)	< 500			≤ 40	≤ 30	≤ 50	inhibition of cell migration ([2]; concentrations below 500 μM): ≤ 30%
C[C@@H](NC(=O)[C@@H](N)Cc1ccc(O)cc1)C(=O)N[C@@H](Cc1ccccc1)C(=O)N1CCN(CC=Cc2ccccc2)CC1.Cl [TyrDAlaPheCyn, tyrosyl-D-alanyl-phenylalanyl-cinnamylpiperazine hydrochloride]		similar	4				
